Measurements from patent publication US8173808B2, “Substituted naphthalenyl-pyrimidine compounds” (ArQule, Inc., priority 2009, dated 2012).

Key:
[1] = test system: DLD-1; test: MTS assay, DLD-1; assay type: cell-based; details: Homo sapiens, 72 hours, 1 Percent FBS
Procedure: (§1) Cells were maintained at 37° C., 5% CO2 in DMEM media supplemented with 1% fetal bovine serum, penicillin/streptomycin and fungizone (Invitrogen). Cells were seeded into 96-well tissue culture plates at 3000 per well and cultured at 37° C. for 18 hours. Test compounds were dissolved and diluted to 300× in DMSO then diluted 1:40 in DMEM. Cells were incubated with test compounds for 72 hours followed by incubation with tetrazolium compound (3-(4,5-dimethylthiazol-2-yl)-5-(3-carboxymethoxyphenyl)-2-(4-sulfophenyl)-2H-tetrazolium, inner salt; MTS) and the electron coupling reagent, phenazine methosulfate (PMS) for 4 hours. […] The ability of compounds to inhibit cell growth in this assay is correlated with the reduction of dehydrogenase enzyme activity found in metabolically active cells. The measurement of the absorbance of the formazan was assessed using a Victor (Perkin Elmer) microplate reader at 492 nm. The calculated IC50 value is the concentration of the test compound that causes a 50% decrease in the absorbance.

[2] = test system: MDA-MB-231; test: MTS assay, MDA-MB-231; assay type: cell-based; details: Homo sapiens, 72 hours, 1 Percent FBS
Procedure: as §1

SMILES | inhibition at 10 µM [1] | inhibition at 10 µM [2]
CNc1nccc(-c2cc(NC(=O)CN3CCN(CCOC)CC3)c3cc(OC)ccc3c2)n1 [Compound 59, 2-[4-(2-methoxyethyl)piperazin-1-yl]-N-{7-methoxy-3-[2-(methylamino)pyrimidin-4-yl]-1-naphthyl}acetamide] | 97% | 98%
CNc1nccc(-c2cc(NC(=O)CN3CCN(CCN4CCCC4)CC3)c3cc(OC)ccc3c2)n1 [Compound 64, N-{7-methoxy-3-[2-(methylamino)pyrimidin-4-yl]-1-naphthyl}-2-[4-(2-pyrrolidin-1-ylethyl)piperazin-1-yl]acetamide] | 89% | 71%
CNc1nccc(-c2cc(NC(=O)CN3CCN(CCCN(C)C)CC3)c3cc(OC)ccc3c2)n1 [Compound 65, 2-{4-[3-(dimethylamino)propyl]piperazin-1-yl}-N-{7-methoxy-3-[2-(methylamino)pyrimidin-4-yl]-1-naphthyl}acetamide] | 98% | 98%
CNc1nccc(-c2cc(NC(=O)CN3CCN(CCN(C)C)CC3)c3cc(OC)ccc3c2)n1 [Compound 67, 2-{4-[2-(dimethylamino)ethyl]piperazin-1-yl}-N-{7-methoxy-3-[2-(methylamino)pyrimidin-4-yl]-1-naphthyl}acetamide] | 31% | 53%
CCN(CC)CCCCNCC(=O)Nc1cc(-c2ccnc(NC)n2)cc2ccc(OC)cc12 [Compound 73, N~2~-[4-(diethylamino)butyl]-N-{7-methoxy-3-[2-(methylamino)pyrimidin-4-yl]-1-naphthyl}glycinamide] | 98% | 98%
CNc1nccc(-c2cc(NC(=O)CN3CCN(c4nccc(C(F)(F)F)n4)CC3)c3cc(OC)ccc3c2)n1 [Compound 75, N-{7-methoxy-3-[2-(methylamino)pyrimidin-4-yl]-1-naphthyl}-2-{4-[4-(trifluoromethyl)pyrimidin-2-yl]piperazin-1-yl}acetamide] | 97% | 98%
CNc1nccc(-c2cc(NC(=O)CNCCN3CCOCC3)c3cc(OC)ccc3c2)n1 [Compound 78, N-{7-methoxy-3-[2-(methylamino)pyrimidin-4-yl]-1-naphthyl}-N~2~-(2-morpholin-4-ylethyl)glycinamide] | 55% | 48%
CNc1nccc(-c2cc(NC(=O)CN3CCN(CC(=O)N(C)c4ccccc4)CC3)c3cc(OC)ccc3c2)n1 [Compound 79, 2-{4-[2-({7-methoxy-3-[2-(methylamino)pyrimidin-4-yl]-1-naphthyl}amino)-2-oxoethyl]piperazin-1-yl}-N-methyl-N-phenylacetamide] | 98% | 99%
CNc1nccc(-c2cc(NC(=O)CN3CCN(CCn4cccc4)CC3)c3cc(OC)ccc3c2)n1 [Compound 82, N-{7-methoxy-3-[2-(methylamino)pyrimidin-4-yl]-1-naphthyl}-2-{4-[2-(1H-pyrrol-1-yl)ethyl]piperazin-1-yl}acetamide] | 96% | 80%
CNc1nccc(-c2cc(NC(=O)CN3CCN(C4CCN(C)CC4)CC3)c3cc(OC)ccc3c2)n1 [Compound 83, N-{7-methoxy-3-[2-(methylamino)pyrimidin-4-yl]-1-naphthyl}-2-[4-(1-methylpiperidin-4-yl)piperazin-1-yl]acetamide] | 99% | 99%
CNc1nccc(-c2cc(NC(=O)CNCCOC)c3cc(OC)ccc3c2)n1 [Compound 85, N~2~-(2-methoxyethyl)-N-{7-methoxy-3-[2-(methylamino)pyrimidin-4-yl]-1-naphthyl}glycinamide] | 98% | 90%
COc1ccc2cc(-c3ccnc(NCCN(C)C)n3)cc(NC(=O)OC(C)(C)C)c2c1 [Compound 86, tert-butyl [3-(2-{[2-(dimethylamino)ethyl]amino}pyrimidin-4-yl)-7-methoxy-1-naphthyl]carbamate] | 31% | 67%
